The target of test [1] is T1, BTK (Homo sapiens, UniProt Q06187).
T1 construct: High control=Cell group with added DMSO and without compound, indicating microplate readings without BTK degradation; endogenous in cells; host or cells: TMD-8 cells
Kind of test: Cell Degradation: BTK degradation in TMD-8 cells, HTRF assay. The test is classed as cell-based. Particulars: 6 h treatment, IC50 (DC50) of BTK degradation. Put shortly: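 BTK levels read by HTRF (665 vs 620 nm) in lysates of TMD-8 cells after 6 h compound exposure (eight doses, 6-fold steps, 0.2% DMSO). Percent degradation relative to controls; four-parameter curve fitting gave DC50, with Dmax the top degradation.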
Background: In TR-FRET formats the signal depends on donor and acceptor labels being close together.

In test [2] the test system is HEK-293 cells. As to the kind of experiment: HEK-293 Cytotoxicity Assay (CellTiter-Glo). In kind it is cell-based. The settings on record: Homo sapiens, HEK293, 72 h incubation, CellTiter-Glo luminescence. The essentials: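 Four-parameter fit of % inhibition gives IC50, from CellTiter-Glo luminescent viability read-out. Cells exposed for 72 h to an 8-point, 4-fold series at 0.2% DMSO.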
Background: In ATP-based viability assays light output follows the ATP content of the culture.

In general, DC50 refers to the concentration at which degradation of the target reaches its halfway point. A low value points to degradation at low concentration. One may read the IC50 as the point on the concentration scale where inhibition reaches its midpoint.

SMILES strings stand for the structures.

T1 sequence (Q06187 whole entry): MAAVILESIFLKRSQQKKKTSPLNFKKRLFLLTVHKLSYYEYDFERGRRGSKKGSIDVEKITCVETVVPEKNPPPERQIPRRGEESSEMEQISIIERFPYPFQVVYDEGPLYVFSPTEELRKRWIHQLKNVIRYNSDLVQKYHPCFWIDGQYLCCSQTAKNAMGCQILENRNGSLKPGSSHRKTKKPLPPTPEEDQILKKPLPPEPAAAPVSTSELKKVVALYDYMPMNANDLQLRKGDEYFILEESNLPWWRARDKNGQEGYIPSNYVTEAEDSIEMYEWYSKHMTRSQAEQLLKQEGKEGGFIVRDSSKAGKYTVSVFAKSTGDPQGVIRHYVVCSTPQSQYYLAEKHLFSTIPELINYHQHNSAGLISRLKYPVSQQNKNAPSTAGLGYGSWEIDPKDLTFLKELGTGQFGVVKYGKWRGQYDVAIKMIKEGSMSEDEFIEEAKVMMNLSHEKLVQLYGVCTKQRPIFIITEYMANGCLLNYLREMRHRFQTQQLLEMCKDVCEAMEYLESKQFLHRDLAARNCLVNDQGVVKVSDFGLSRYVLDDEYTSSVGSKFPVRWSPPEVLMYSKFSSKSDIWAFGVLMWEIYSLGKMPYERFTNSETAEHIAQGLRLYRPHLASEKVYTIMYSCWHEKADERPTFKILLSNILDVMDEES

With `Cc1cc(-c2ncnc3[nH]c(-c4ccc(N5CCN(CCC6CCN(c7ccc([C@H]8CCC(=O)NC8=O)cc7)CC6)CC5)nc4)cc23)ccc1[C@@H](C)NC(=O)c1nc(C(C)(C)C)no1` [Example 53, 3-(tert-butyl)-N-((R)-1-(4-(6-(6-(4-(2-(1-(4-((R)-2,6-dioxopiperidin-3-yl)phenyl)piperidin-4-yl)ethyl)piperazin-1-yl)pyridin-3-yl)-7H-pyrrolo[2,3-d]pyrimidin-4-yl)-2-methylphenyl)ethyl)-1,2,4-oxadiazole-5-carboxamide], the DC50 in test [1] is more than 2000 nM. The compound also displayed a half-maximal inhibitory concentration (IC50) in test [2] of more than 10000 nM.
The matching figures for `Cc1cc(-c2ncnc3[nH]c(-c4ccc(N5CCN(CCC6CCN(c7ccc([C@@H]8CCC(=O)NC8=O)cc7)CC6)CC5)nc4)cc23)ccc1[C@@H](C)NC(=O)c1nc(C(C)(C)C)no1` [Example 54, 3-(tert-butyl)-N-((R)-1-(4-(6-(6-(4-(2-(1-(4-((S)-2,6-dioxopiperidin-3-yl)phenyl)piperidin-4-yl)ethyl)piperazin-1-yl)pyridin-3-yl)-7H-pyrrolo[2,3-d]pyrimidin-4-yl)-2-methylphenyl)ethyl)-1,2,4-oxadiazole-5-carboxamide]: 3.7 nM and more than 10000 nM.
In the same order, the values of `Cc1cc(-c2ncnc3[nH]c(-c4ccc(N5CCN(CC6CCN(c7ccc(C8CCC(=O)NC8=O)cc7)CC6)CC5)cc4)cc23)ccc1[C@@H](C)NC(=O)c1nc(C(C)(C)C)no1` (stereo partly drawn) [Example 55, (R)-3-(tert-butyl)-N-(1-(4-(6-(4-(4-((1-(4-(2,6-dioxopiperidin-3-yl)phenyl)piperidin-4-yl)methyl)piperazin-1-yl)phenyl)-7H-pyrrolo[2,3-d]pyrimidin-4-yl)-2-methylphenyl)ethyl)-1,2,4-oxadiazole-5-carboxamide] are 3.2 nM and more than 10000 nM.
For `Cc1cc(-c2ncnc3[nH]c(-c4ccc(N5CCN(CC6CCN(c7ccc(N8CCC(=O)NC8=O)c(C)c7)CC6)CC5)nc4)cc23)ccc1[C@@H](C)NC(=O)c1nc(C(C)(C)C)no1` [Example 58, (R)-3-(tert-butyl)-N-(1-(4-(6-(6-(4-((1-(4-(2,4-dioxotetrahydropyrimidin-1(2H)-yl)-3-methylphenyl)piperidin-4-yl)methyl)piperazin-1-yl)pyridin-3-yl)-7H-pyrrolo[2,3-d]pyrimidin-4-yl)-2-methylphenyl)ethyl)-1,2,4-oxadiazole-5-carboxamide], half-maximal degradation in test [1] (DC50) was put at 1.5 nM. In test [2], this compound gave an IC50 of more than 10000 nM.
The matching figures for `Cc1cc(-c2ncnc3[nH]c(-c4c(C)nn(C5CCN(CC6CCN(c7ccc(N8CCC(=O)NC8=O)cc7)CC6)CC5)c4C)cc23)ccc1[C@@H](C)NC(=O)c1nc(C(C)(C)C)no1` [Example 60, (R)-3-(tert-butyl)-N-(1-(4-(6-(1-(1-((1-(4-(2,4-dioxotetrahydropyrimidin-1(2H)-yl)phenyl)piperidin-4-yl)methyl)piperidin-4-yl)-3,5-dimethyl-1H-pyrazol-4-yl)-7H-pyrrolo[2,3-d]pyrimidin-4-yl)-2-methylphenyl)ethyl)-1,2,4-oxadiazole-5-carboxamide]: 0.48 nM and more than 10000 nM.
In the same order, the values of `Cc1cc(-c2ncnc3[nH]c(-c4c(C)nn(C5CCN(CC6CCN(c7ccc(N8CCC(=O)NC8=O)c(C)c7)CC6)CC5)c4C)cc23)ccc1[C@@H](C)NC(=O)c1nc(C(C)(C)C)no1` [Example 61, (R)-3-(tert-butyl)-N-(1-(4-(6-(1-(1-((1-(4-(2,4-dioxotetrahydropyrimidin-1(2H)-yl)-3-methylphenyl)piperidin-4-yl)methyl)piperidin-4-yl)-3,5-dimethyl-1H-pyrazol-4-yl)-7H-pyrrolo[2,3-d]pyrimidin-4-yl)-2-methylphenyl)ethyl)-1,2,4-oxadiazole-5-carboxamide] are 0.52 nM and 9000 nM.
The matching figures for `Cc1cc(-c2ncnc3[nH]c(-c4c(C)nn(C5CCN(CC6CCN(c7ccc(N8CCC(=O)NC8=O)cc7)CC6)CC5)c4C)cc23)ccc1[C@@H](C)NC(=O)c1noc(C(C)(C)C)n1` [Example 62, (R)-5-(tert-butyl)-N-(1-(4-(6-(1-(1-((1-(4-(2,4-dioxotetrahydropyrimidin-1(2H)-yl)phenyl)piperidin-4-yl)methyl)piperidin-4-yl)-3,5-dimethyl-1H-pyrazol-4-yl)-7H-pyrrolo[2,3-d]pyrimidin-4-yl)-2-methylphenyl)ethyl)-1,2,4-oxadiazole-3-carboxamide]: 0.53 nM and more than 10000 nM.
For the compound `Cc1cc(-c2ncnc3[nH]c(-c4ccc(N5CCN(CC6CCN(c7ccc(N8CCC(=O)NC8=O)c(C)c7)CC6)CC5)nc4)nc23)ccc1[C@@H](C)NC(=O)c1nc(C(C)(C)C)no1` [Example 65, (R)-3-(tert-butyl)-N-(1-(4-(8-(6-(4-((1-(4-(2,4-dioxotetrahydropyrimidin-1(2H)-yl)-3-methylphenyl)piperidin-4-yl)methyl)piperazin-1-yl)pyridin-3-yl)-9H-purin-6-yl)-2-methylphenyl)ethyl)-1,2,4-oxadiazole-5-carboxamide], the DC50 in test [1] came to 0.6 nM. The compound further came in with an IC50 in test [2] of more than 10000 nM.
For the compound `Cc1cc(-c2ncnc3[nH]c(-c4ccc(N5CCN(CC6CCN(c7ccc(N8CCC(=O)NC8=O)c(C)c7)CC6)CC5)cc4)nc23)ccc1[C@@H](C)NC(=O)c1nc(C(C)(C)C)no1` [Example 67, (R)-3-(tert-butyl)-N-(1-(4-(8-(4-(4-((1-(4-(2,4-dioxotetrahydropyrimidin-1(2H)-yl)-3-methylphenyl)piperidin-4-yl)methyl)piperazin-1-yl)phenyl)-9H-purin-6-yl)-2-methylphenyl)ethyl)-1,2,4-oxadiazole-5-carboxamide], in test [1], the DC50 stood at 0.69 nM. This compound also showed an IC50 in test [2] of more than 10000 nM.
The matching figures for `Cc1cc(-c2ncnc3[nH]c(-c4ccc(N5CCN(CC6CCN(c7ccc(N8CCC(=O)NC8=O)cc7)CC6)CC5)cc4)nc23)ccc1[C@@H](C)NC(=O)c1noc(C(C)(C)C)n1` [Example 68, (R)-5-(tert-butyl)-N-(1-(4-(8-(4-(4-((1-(4-(2,4-dioxotetrahydropyrimidin-1(2H)-yl)phenyl)piperidin-4-yl)methyl)piperazin-1-yl)phenyl)-9H-purin-6-yl)-2-methylphenyl)ethyl)-1,2,4-oxadiazole-3-carboxamide]: 1.08 nM and more than 10000 nM.
The matching figures for `Cc1cc(-c2ncnc3[nH]c(-c4ccc(N5CCN(CC6CCN(c7ccc(N8CCC(=O)NC8=O)c(C)c7)CC6)CC5)nc4)nc23)ccc1[C@@H](C)NC(=O)c1noc(C(C)(C)C)n1` [Example 71, (R)-5-(tert-butyl)-N-(1-(4-(8-(6-(4-((1-(4-(2,4-dioxotetrahydropyrimidin-1(2H)-yl)-3-methylphenyl)piperidin-4-yl)methyl)piperazin-1-yl)pyridin-3-yl)-9H-purin-6-yl)-2-methylphenyl)ethyl)-1,2,4-oxadiazole-3-carboxamide]: 0.21 nM and more than 10000 nM.
In the same order, the values of `Cc1cc(-c2ncnc3[nH]c(-c4ccc(N5CCN(CC6CCN(c7ccc(N8CCC(=O)NC8=O)c(C)c7)CC6)CC5)cc4)nc23)ccc1[C@@H](C)NC(=O)c1noc(C(C)(C)C)n1` [Example 73, (R)-5-(tert-butyl)-N-(1-(4-(8-(4-(4-((1-(4-(2,4-dioxotetrahydropyrimidin-1(2H)-yl)-3-methylphenyl)piperidin-4-yl)methyl)piperazin-1-yl)phenyl)-9H-purin-6-yl)-2-methylphenyl)ethyl)-1,2,4-oxadiazole-3-carboxamide] are 1.1 nM and more than 10000 nM.

The values are drawn from patent US20230167118A1, “DEGRADATION OF BRUTON'S TYROSINE KINASE (BTK) BY CONJUGATION OF BTK INIDBITORS WITH E3 LIGASE LIGAND AND METHODS OF USE” (BEIGENE, LTD., priority 2020, published 2023).
